From patent US20100204128A1, “NOVEL PEPTIDES” (SANARE INVESTMENT AS, priority 2007, published 2010)
“And” between values parts separate entries of the source, which are not always exact repeats. Equal values may be shown once.

Assays:
Format in all cases: cell-based
Details in all cases: 24 hours, duplicate wells
[1] = test system: TMX2-28 cells; assay: AlmarBlue fluorescence cell growth test, TMX2-28 cells
Description: With that, the 5×10^−3M mixture contains about 0.42×10^−3M of each peptide. Furthermore, mixtures containing equal volumes of peptides SEQ ID NO:2-SEQ ID NO:7, SEQ ID NO:10 and SEQ ID NO:11 were also prepared (equal volumes of said re-feed media) to yield the following final six concentrations: […] With that, the 5×10^−3M mixture contains about […].
(§1) MCF-7 and T47D cells were seeded into 96-well plates at a density of 10,000 cells per well in 90 μL of appropriate culture medium. TMX2-28 cells were seeded into 96-well plates at a density of 5,000 cells per well in 90 μL of appropriate culture medium. Plates were placed in a 37° C., 5% CO2 incubator and cells were allowed to attach to the bottom of the well for 24 hours after which 10 μL of the appropriate refeed medium was added. Each concentration was tested in duplicate in each cell line. […] Cells were then incubated for 24 hours. Subsequently 10 μL of AlmarBlue (Biosource) was added to each well. After three hours, the fluorescence was detected using a Packard Instrument Plate Reader with 535/20 excitation and 590/20 emission filters.

[2] = test system: T47D cells; assay: AlmarBlue fluorescence cell growth test, T47D cells
Description: (§2) Re-feed media were prepared to yield the following final six concentrations of each of the 12 peptides: 5×10^−3, 5×10^−4, 5×10^−5, 5×10^−6, 5×10^−7, and 5×10^−8M. […] With that, the 5×10^−3M mixture contains about 0.42×10^−3M of each peptide. […] With that, the 5×10^−3M mixture contains about 0.42×10^−3M of each of said 8 peptides.
as §1

[3] = test system: MCF-7 cells; assay: AlmarBlue fluorescence cell growth test, MCF-7 cells
Description: as §2, §1

[4] = 5 × 10^−4 M (mixtures: total concentration), decrease vs DC5 = reduced cell growth
[5] = 5 × 10^−5 M (mixtures: total concentration)
[6] = 5 × 10^−6 M (mixtures: total concentration)
[7] = 5 × 10^−7 M (mixtures: total concentration)
[8] = 5 × 10^−8 M (mixtures: total concentration)
[9] = 5 × 10^−9 M (mixtures: total concentration)

Row | Substance | fluorescent readings [1, 4] | fluorescent readings [1, 5] | fluorescent readings [1, 6] | fluorescent readings [1, 7] | fluorescent readings [1, 8] | fluorescent readings [1, 9] | fluorescent readings [2, 4] | fluorescent readings [2, 5] | fluorescent readings [2, 6] | fluorescent readings [2, 7] | fluorescent readings [2, 8] | fluorescent readings [2, 9] | fluorescent readings [3, 4] | fluorescent readings [3, 5] | fluorescent readings [3, 6] | fluorescent readings [3, 7] | fluorescent readings [3, 8] | fluorescent readings [3, 9]
1 | SEQIDNO8: synthesised peptide identified in the 10 kDa blood fraction after acupuncture; sequence not printed in the text (GVLLVRAPPACLQVLR; Derived from human blood sample) | 63114 and 65457 | 67475 and 69324 | 68833 and 70414 | 70559 and 72074 | 70603 and 73593 | 68676 and 68864 | 62688 and 60767 | 68041 and 64777 | 66479 and 60908 | 65388 and 63864 | 64353 and 63685 | 64124 and 63134 | 64002 and 64485 | 68720 and 70447 | 69897 and 70376 | 68985 and 70404 | 68423 and 68263 | 61653 and 66015
2 | SEQIDNO9: synthesised peptide identified in the 10 kDa blood fraction after acupuncture; sequence not printed in the text (SSNNGCMRDPTLYRCK; Derived from human blood sample) | 71608 and 70176 | 69255 and 69328 | 69234 and 68280 | 67663 and 69155 | 67229 and 67807 | 68009 and 65131 | 67492 and 77427 | 63181 and 64535 | 62848 and 62359 | 63130 and 68689 | 60146 and 64467 | 65094 and 67070 | 67879 and 68176 | 65563 and 69218 | 65046 and 65931 | 63071 and 65962 | 57728 and 62231 | 62556 and 61065
3 | SEQIDNO10: synthesised peptide identified in the 10 kDa blood fraction after acupuncture; sequence not printed in the text (GGVLSPADKTNVK; Derived from human blood sample) | 74950 and 67668 | 70143 and 70096 | 68926 and 71006 | 68674 and 69541 | 67904 and 70174 | 64358 and 65678 | 58905 and 62040 | 62235 and 61799 | 61232 and 61422 | 61576 and 62488 | 62058 and 61865 | 63213 and 64672 | 66888 and 71581 | 67041 and 68134 | 68442 and 69458 | 67343 and 65315 | 62238 and 64184 | 62410 and 63264
4 | SEQIDNO11: synthesised peptide identified in the 10 kDa blood fraction after acupuncture; sequence not printed in the text (TLAGENQTALEIEELNRK; Derived from human blood sample) | 66600 and 67446 | 67045 and 66528 | 66568 and 64759 | 64371 and 65373 | 65587 and 66707 | 64433 and 65703 | 61976 and 62453 | 61546 and 64267 | 62448 and 60200 | 62557 and 63900 | 62018 and 64649 | 63935 and 65696 | 65114 and 72373 | 65947 and 68983 | 64058 and 64030 | 63837 and 64861 | 60430 and 65118 | 60886 and 63795
5 | SEQIDNO12: synthesised peptide identified in the 10 kDa blood fraction after acupuncture; sequence not printed in the text (PVLTLDMPSSERGK; Derived from human blood sample) | 64801 and 66313 | 67335 and 67800 | 69868 and 69586 | 67062 and 68845 | 68382 and 67167 | 66458 and 66191 | 57184 and 62215 | 62230 and 62786 | 64065 and 63826 | 64023 and 65295 | 65019 and 65289 | 62179 and 65227 | 64634 and 66223 | 67452 and 68292 | 67604 and 67923 | 65967 and 68650 | 64530 and 64993 | 59810 and 61717
